# Test results reported in patent US9527832B2, “Substituted condensed pyrimidine compounds” (GRÜNENTHAL GMBH, priority 2013, dated 2016).
# Biological target: T1, human PDE4B1 (Homo sapiens, UniProt Q07343)
# T1 construct: host or cells: Sf9 cells
# Assay: cAMP HTRF assay to determine the activity of hPDE4B1
# Assay type: biochemical
# Conditions: for inhibition at 1 µM: Percentage inhibition of PDE4B at 1 μM test concentration; for IC50: dose response measurements with eight concentrations, reported as ranges, read-out: IC50
# Summary of the method: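 Sf9-expressed recombinant human PDE4B1 (4.8 U) in Tris-HCl/MgCl2/DTT/Tween 20 buffer pH 7.8, with cAMP at 40 nM final, 30 min at room temperature. Reaction stopped with IBMX 1 mM; remaining cAMP detected by HTRF (665/620 nm ratio). IC50 from eight-point dose-response, n=2.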
# T1 sequence (Q07343 whole entry): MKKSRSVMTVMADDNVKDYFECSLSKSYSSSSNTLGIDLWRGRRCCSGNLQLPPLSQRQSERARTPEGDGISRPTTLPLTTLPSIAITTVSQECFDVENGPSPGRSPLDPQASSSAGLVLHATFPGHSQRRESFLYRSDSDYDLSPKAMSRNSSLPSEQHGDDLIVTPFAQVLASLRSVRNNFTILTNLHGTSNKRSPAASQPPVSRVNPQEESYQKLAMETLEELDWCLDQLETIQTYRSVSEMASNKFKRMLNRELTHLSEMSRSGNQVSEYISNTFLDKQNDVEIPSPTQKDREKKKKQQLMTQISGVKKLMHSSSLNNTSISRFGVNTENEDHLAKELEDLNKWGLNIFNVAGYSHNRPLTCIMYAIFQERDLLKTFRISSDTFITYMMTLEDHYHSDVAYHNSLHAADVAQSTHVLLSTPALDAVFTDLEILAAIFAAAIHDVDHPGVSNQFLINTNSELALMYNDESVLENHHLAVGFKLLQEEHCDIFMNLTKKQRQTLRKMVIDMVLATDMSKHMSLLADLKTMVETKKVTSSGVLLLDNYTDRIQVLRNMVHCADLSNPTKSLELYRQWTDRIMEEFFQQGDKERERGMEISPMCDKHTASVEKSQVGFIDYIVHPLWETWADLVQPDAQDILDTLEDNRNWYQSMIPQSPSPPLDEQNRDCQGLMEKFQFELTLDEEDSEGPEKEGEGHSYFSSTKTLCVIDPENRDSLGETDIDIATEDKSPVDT
inhibition at 1 µM [%],IC50 [nM],Compound
61,100 to 1000,"COc1ccc(-c2nc3c(c(N4C(=O)Cc5cc(CC(=O)O)ccc54)n2)CCC3)cc1Cl [Compound No. 1-66, 2-(1-(2-(3-Chloro-4-methoxyphenyl)-6,7-dihydro-5H-cyclopenta[d]-pyrimidin-4-yl)-2-oxoindolin-5-yl)acetic acid]"
34,–,"O=C(O)c1ccc2c(c1)oc(=O)n2-c1nc(-c2ccc(Cl)s2)nc2c1CCC2 [Compound No. 1-68, 3-(2-(5-Chlorothiophen-2-yl)-6,7-dihydro-5H-cyclopenta[d]pyrimidin-4-yl)-2-oxo-2,3-dihydrobenzo[d]oxazole-6-carboxylic acid]"
61,100 to 1000,"O=C(O)c1ccc2c(c1)CC(=O)N2c1nc(-c2ccc(Cl)s2)nc2c1CCC2 [Compound No. 1-69, 1-(2-(5-Chlorothiophen-2-yl)-6,7-dihydro-5H-cyclopenta[d]pyrimidin-4-yl)-2-oxoindoline-5-carboxylic acid]"
61,100 to 1000,"O=C(O)c1ccc2c(ccn2-c2nc(-c3ccc(Cl)s3)nc3c2CCC3)c1 [Compound No. 1-70, 1-(2-(5-Chlorothiophen-2-yl)-6,7-dihydro-5H-cyclopenta[d]pyrimidin-4-yl)-1H-indole-5-carboxylic acid]"
64,100 to 1000,"O=C(O)Cc1ccc2c(ccn2-c2nc(-c3ccc(Cl)s3)nc3c2CCC3)c1 [Compound No. 1-71, 2-(1-(2-(5-Chlorothiophen-2-yl)-6,7-dihydro-5H-cyclopenta[d]pyrimidin-4-yl)-1H-indol-5-yl)acetic acid]"
59,100 to 1000,"O=C(O)c1ccc2c(c1)CCN2c1nc(-c2ccc(Cl)s2)nc2c1CCC2 [Compound No. 1-72, 1-(2-(5-Chlorothiophen-2-yl)-6,7-dihydro-5H-cyclopenta[d]pyrimidin-4-yl)indoline-5-carboxylic acid]"
80,100 to 1000,"O=C(O)c1ccc2c(cnn2-c2nc(-c3ccc(Cl)s3)nc3c2CCC3)c1 [Compound No. 1-73, 1-(2-(5-Chlorothiophen-2-yl)-6,7-dihydro-5H-cyclopenta[d]pyrimidin-4-yl)-1H-indazole-5-carboxylic acid]"
101,< 100,"NC(=O)c1ccc(-c2nc3c(c(N4CCc5cc(CC(=O)O)ccc54)n2)CCC3)s1 [Compound No. 1-75, 2-(1-(2-(5-Carbamoylthiophen-2-yl)-6,7-dihydro-5H-cyclopenta[d]pyrimidin-4-yl)indolin-5-yl)acetic acid]"
62,100 to 1000,"COC(=O)COc1ccc2c(c1)N(c1nc(-c3ccc(Cl)s3)nc3c1CS(=O)(=O)C3)CC2 [Compound No. 1-77, Methyl 2-((1-(2-(5-chlorothiophen-2-yl)-6,6-dioxido-5,7-dihydrothieno[3,4-d]pyrimidin-4-yl)indolin-6-yl)oxy)acetate]"
25,–,"COC(=O)Cc1ccc2c(c1)CCN2c1nc(-c2ccc(Cl)s2)nc2c1CS(=O)(=O)C2 [Compound No. 1-78, Methyl 2-(1-(2-(5-chlorothiophen-2-yl)-6,6-dioxido-5,7-dihydrothieno[3,4-d]pyrimidin-4-yl)indolin-5-yl)acetate]"
88,100 to 1000,"COC(=O)COc1ccc2c(c1)N(c1nc(-c3ccc(Cl)s3)nc3c1CCC3)CC2 [Compound No. 1-79, Methyl 2-((1-(2-(5-chlorothiophen-2-yl)-6,7-dihydro-5H-cyclopenta[d]pyrimidin-4-yl)indolin-6-yl)oxy)acetate]"
108,< 100,"O=C(O)Cc1ccc2c(c1)CCN2c1nc(-c2cc3ccccc3s2)nc2c1C[S+]([O-])C2 (centres unmarked) [Compound No. 1-80, 2-(1-(2-(Benzo[b]thiophen-2-yl)-6-oxido-5,7-dihydrothieno[3,4-d]pyrimidin-4-yl)indolin-5-yl)acetic acid]"
106,< 100,"O=C(O)Cc1ccc2c(c1)CCN2c1nc(-c2ccc3occc3c2)nc2c1C[S+]([O-])C2 (centres unmarked) [Compound No. 1-81, 2-(1-(2-(Benzofuran-5-yl)-6-oxido-5,7-dihydrothieno[3,4-d]pyrimidin-4-yl)indolin-5-yl)acetic acid]"
88,< 100,"COc1ccc(-c2nc3c(c(N4CCc5ccc(OCC(=O)N(C)C)cc54)n2)CS(=O)(=O)C3)cc1 [Compound No. 2-21, 2-((1-(2-(4-Methoxyphenyl)-6,6-dioxido-5,7-dihydrothieno[3,4-d]pyrimidin-4-yl)indolin-6-yl)oxy)-N,N-dimethylacetamide]"
100,< 100,"COc1ccc(-c2nc3c(c(N4CCc5ccc(OCC(=O)N(C)C)cc54)n2)CS(=O)(=O)C3)cc1Cl [Compound No. 2-33, 2-((1-(2-(3-Chloro-4-methoxyphenyl)-6,6-dioxido-5,7-dihydrothieno[3,4-d]pyrimidin-4-yl)indolin-6-yl)oxy)-N,N-dimethylacetamide]"
98,< 100,"COc1ccc(-c2nc3c(c(N4CCc5ccc(OCC(=O)N(C)C)cc54)n2)C[S+]([O-])C3)cc1F (centres unmarked) [Compound No. 2-36, 2-((1-(2-(3-Fluoro-4-methoxyphenyl)-6-oxido-5,7-dihydrothieno[3,4-d]pyrimidin-4-yl)indolin-6-yl)oxy)-N,N-dimethylacetamide]"
96,< 100,"COc1ccc(-c2nc3c(c(N4CCc5ccc(OCC(=O)N(C)C)cc54)n2)CS(=O)(=O)C3)cc1F [Compound No. 2-37, 2-((1-(2-(3-Fluoro-4-methoxyphenyl)-6,6-dioxido-5,7-dihydrothieno[3,4-d]pyrimidin-4-yl)indolin-6-yl)oxy)-N,N-dimethylacetamide]"
119,< 100,"CN(C)C(=O)COc1ccc2c(c1)N(c1nc(-c3ccc(F)c(F)c3)nc3c1C[S+]([O-])C3)CC2 (centres unmarked) [Compound No. 2-40, 2-((1-(2-(3,4-Difluorophenyl)-6-oxido-5,7-dihydrothieno[3,4-d]pyrimidin-4-yl)indolin-6-yl)oxy)-N,N-dimethylacetamide]"
85,< 100,"CN(C)C(=O)COc1ccc2c(c1)N(c1nc(-c3ccc(F)c(F)c3)nc3c1CS(=O)(=O)C3)CC2 [Compound No. 2-41, 2-((1-(2-(3,4-Difluorophenyl)-6,6-dioxido-5,7-dihydrothieno[3,4-d]pyrimidin-4-yl)indolin-6-yl)oxy)-N,N-dimethylacetamide]"
79,< 100,"CN(C)C(=O)COc1ccc2c(c1)N(c1nc(-c3ccc(Cl)s3)nc3c1CCC3)CC2 [Compound No. 2-42, 2-((1-(2-(5-Chlorothiophen-2-yl)-6,7-dihydro-5H-cyclopenta[d]pyrimidin-4-yl)indolin-6-yl)oxy)-N,N-dimethylacetamide]"
105,< 100,"CN(C)C(=O)COc1ccc2c(c1)N(c1nc(-c3ccc(Cl)s3)nc3c1CS(=O)(=O)C3)CC2 [Compound No. 2-45, 2-((1-(2-(5-Chlorothiophen-2-yl)-6,6-dioxido-5,7-dihydrothieno[3,4-d]pyrimidin-4-yl)indolin-6-yl)oxy)-N,N-dimethylacetamide]"
94,< 100,"CN(C)C(=O)COc1ccc2c(c1)N(c1nc(-c3ccc(F)s3)nc3c1CCC3)CC2 [Compound No. 2-46, 2-((1-(2-(5-Fluorothiophen-2-yl)-6,7-dihydro-5H-cyclopenta[d]pyrimidin-4-yl)indolin-6-yl)oxy)-N,N-dimethylacetamide]"
127,< 100,"CN(C)C(=O)COc1ccc2c(c1)N(c1nc(-c3ccc(F)s3)nc3c1CS(=O)(=O)C3)CC2 [Compound No. 2-49, 2-((1-(2-(5-Fluorothiophen-2-yl)-6,6-dioxido-5,7-dihydrothieno[3,4-d]pyrimidin-4-yl)indolin-6-yl)oxy)-N,N-dimethylacetamide]"
54,100 to 1000,"CC(C)NC(=O)COc1ccc2c(c1)N(c1nc(-c3ccc(Cl)s3)nc3c1CS(=O)(=O)C3)CC2 [Compound No. 2-54, 2-((1-(2-(5-Chlorothiophen-2-yl)-6,6-dioxido-5,7-dihydrothieno[3,4-d]pyrimidin-4-yl)indolin-6-yl)oxy)-N-isopropylacetamide]"
52,–,"CCNC(=O)COc1ccc2c(c1)N(c1nc(-c3ccc(Cl)s3)nc3c1CS(=O)(=O)C3)CC2 [Compound No. 2-55, 2-((1-(2-(5-Chlorothiophen-2-yl)-6,6-dioxido-5,7-dihydrothieno[3,4-d]pyrimidin-4-yl)indolin-6-yl)oxy)-N-ethylacetamide]"
68,100 to 1000,"CN(C(=O)COc1ccc2c(c1)N(c1nc(-c3ccc(Cl)s3)nc3c1CS(=O)(=O)C3)CC2)C1CC1 [Compound No. 2-56, 2-((1-(2-(5-Chlorothiophen-2-yl)-6,6-dioxido-5,7-dihydrothieno[3,4-d]pyrimidin-4-yl)indolin-6-yl)oxy)-N-cyclopropyl-N-methylacetamide]"
89,< 100,"CN(CC1CC1)C(=O)COc1ccc2c(c1)N(c1nc(-c3ccc(Cl)s3)nc3c1CS(=O)(=O)C3)CC2 [Compound No. 2-57, 2-((1-(2-(5-Chlorothiophen-2-yl)-6,6-dioxido-5,7-dihydrothieno[3,4-d]pyrimidin-4-yl)indolin-6-yl)oxy)-N-(cyclopropylmethyl)-N-methylacetamide]"
70,100 to 1000,"CNC(=O)COc1ccc2c(c1)N(c1nc(-c3ccc(Cl)s3)nc3c1CS(=O)(=O)C3)CC2 [Compound No. 2-58, 2-((1-(2-(5-Chlorothiophen-2-yl)-6,6-dioxido-5,7-dihydrothieno[3,4-d]pyrimidin-4-yl)indolin-6-yl)oxy)-N-methylacetamide]"
